# Measured values published in US20070003585A1, “Topical skin treating compositions” (STIEFEL LABORATORIES, INC., priority 2005, published 2007).
# Like-named read-outs stand apart in the source and are kept apart here.
# Legend:
# [1] = Example 11 composition, initial […]
# [2] = Example 7 composition, initial 5.22%
# [3] = Storage stability of composition containing 2.15% of benzoyl peroxide, […] of tazarotene, and […] of clindamycin (Example 8); assay type: physicochemical; settings: Example 8 composition, initial 2.15%, 6 months
# [4] = Storage stability of composition containing 2.02% of benzoyl peroxide and 0.099% of tazarotene (Example 17); assay type: physicochemical; settings: Example 17 composition, initial 2.02%
# Description: (§1) The results are as follows:
# [5] = Example 12 composition, initial […]
# [6] = Example 10 composition, initial 1.54%
# [7] = Storage stability of composition containing 5.18% of benzoyl peroxide and 0.099% of tazarotene (Example 18); assay type: physicochemical; settings: Example 18 composition, initial 5.18%
# Description: as §1
# [8] = Storage stability of composition containing 2.02% of benzoyl peroxide, […] of tazarotene, and […] of clindamycin (Example 9); assay type: physicochemical; settings: Example 9 composition, initial 2.02%
# [9] = Example 6 composition, initial 5.54%
# [10] = Example 13 composition, initial […]
smiles,measurement,setting,value
O=C(OOC(=O)c1ccccc1)c1ccccc1 [Benzoyl Peroxide],Benzoyl Peroxide (BPO) (as % w/w),"[1]; 2 weeks, 6° C.",0.99 % w/w
same,Benzoyl Peroxide (BPO) (as % w/w),"[1]; 2 weeks, 25° C.",0.95 % w/w
same,Benzoyl Peroxide (BPO) (as % w/w),"[1]; 2 weeks, 40° C.",0.94 % w/w
same,Benzoyl Peroxide (BPO) (as % w/w),"[1]; 6 months, 6° C.",0.99 % w/w
same,Benzoyl Peroxide (BPO) (as % w/w),"[1]; 6 months, 25° C.",0.91 % w/w
same,Benzoyl Peroxide (BPO) (as % w/w),"[1]; 6 months, 40° C.",0.35 % w/w
same,Benzoyl Peroxide (BPO) (as % w/w),"[1]; 30 days, 6° C.",0.98 % w/w
same,Benzoyl Peroxide (BPO) (as % w/w),"[1]; 30 days, 25° C.",0.95 % w/w
same,Benzoyl Peroxide (BPO) (as % w/w),"[1]; 30 days, 40° C.",0.90 % w/w
same,Benzoyl Peroxide (BPO) (as % w/w),"[1]; 90 days, 6° C.",0.99 % w/w
same,Benzoyl Peroxide (BPO) (as % w/w),"[1]; 90 days, 25° C.",0.93 % w/w
same,Benzoyl Peroxide (BPO) (as % w/w),"[1]; 90 days, 40° C.",0.69 % w/w
same,Benzoyl Peroxide (BPO) (as % w/w),"[2]; 2 weeks, 6° C.",5.22 % w/w
same,Benzoyl Peroxide (BPO) (as % w/w),"[2]; 2 weeks, 25° C.",5.24 % w/w
same,Benzoyl Peroxide (BPO) (as % w/w),"[2]; 2 weeks, 30° C.",5.23 % w/w
same,Benzoyl Peroxide (BPO) (as % w/w),"[2]; 2 weeks, 40° C.",5.12 % w/w
same,Benzoyl Peroxide (BPO) (as % w/w),"[2]; 6 months, 6° C.",5.16 % w/w
same,Benzoyl Peroxide (BPO) (as % w/w),"[2]; 6 months, 25° C.",4.80 % w/w
same,Benzoyl Peroxide (BPO) (as % w/w),"[2]; 6 months, 30° C.",4.91 % w/w
same,Benzoyl Peroxide (BPO) (as % w/w),"[2]; 6 months, 40° C.",4.59 % w/w
same,Benzoyl Peroxide (BPO) (as % w/w),[3]; 6° C.,2.13 % w/w
same,Benzoyl Peroxide (BPO) (as % w/w),[3]; 25° C.,2.00 % w/w
same,Benzoyl Peroxide (BPO) (as % w/w),[3]; 30° C.,2.05 % w/w
same,Benzoyl Peroxide (BPO) (as % w/w),[3]; 40° C.,1.69 % w/w
same,Benzoyl peroxide (as % w/w),"[4]; 6 months, 6° C.",2.07 % w/w
same,Benzoyl peroxide (as % w/w),"[4]; 6 months, 25° C.",2.03 % w/w
same,Benzoyl peroxide (as % w/w),"[4]; 6 months, 30° C.",2.05 % w/w
same,Benzoyl peroxide (as % w/w),"[4]; 6 months, 40° C.",1.94 % w/w
same,Benzoyl peroxide (as % w/w),"[4]; 90 days, 6° C.",2.09 % w/w
same,Benzoyl peroxide (as % w/w),"[4]; 90 days, 25° C.",2.06 % w/w
same,Benzoyl peroxide (as % w/w),"[4]; 90 days, 30° C.",2.07 % w/w
same,Benzoyl peroxide (as % w/w),"[4]; 90 days, 40° C.",2.01 % w/w
same,Benzoyl Peroxide (BPO) (as % w/w),"[5]; 2 weeks, 6° C.",0.99 % w/w
same,Benzoyl Peroxide (BPO) (as % w/w),"[5]; 2 weeks, 25° C.",0.97 % w/w
same,Benzoyl Peroxide (BPO) (as % w/w),"[5]; 2 weeks, 30° C.",0.97 % w/w
same,Benzoyl Peroxide (BPO) (as % w/w),"[5]; 2 weeks, 40° C.",0.94 % w/w
same,Benzoyl Peroxide (BPO) (as % w/w),"[5]; 6 months, 6° C.",1.01 % w/w
same,Benzoyl Peroxide (BPO) (as % w/w),"[5]; 6 months, 25° C.",0.95 % w/w
same,Benzoyl Peroxide (BPO) (as % w/w),"[5]; 6 months, 30° C.",0.92 % w/w
same,Benzoyl Peroxide (BPO) (as % w/w),"[5]; 6 months, 40° C.",0.40 % w/w
same,Benzoyl Peroxide (BPO) (as % w/w),"[5]; 90 days, 6° C.",1.00 % w/w
same,Benzoyl Peroxide (BPO) (as % w/w),"[5]; 90 days, 25° C.",0.94 % w/w
same,Benzoyl Peroxide (BPO) (as % w/w),"[5]; 90 days, 30° C.",0.93 % w/w
same,Benzoyl Peroxide (BPO) (as % w/w),"[5]; 90 days, 40° C.",0.73 % w/w
same,Benzoyl Peroxide (BPO) (as % w/w),"[6]; 6 months, 6° C.",1.50 % w/w
same,Benzoyl Peroxide (BPO) (as % w/w),"[6]; 6 months, 25° C.",1.40 % w/w
same,Benzoyl Peroxide (BPO) (as % w/w),"[6]; 6 months, 30° C.",1.40 % w/w
same,Benzoyl Peroxide (BPO) (as % w/w),"[6]; 6 months, 40° C.",1.03 % w/w
same,Benzoyl Peroxide (BPO) (as % w/w),"[6]; 90 days, 6° C.",1.50 % w/w
same,Benzoyl Peroxide (BPO) (as % w/w),"[6]; 90 days, 25° C.",1.44 % w/w
same,Benzoyl Peroxide (BPO) (as % w/w),"[6]; 90 days, 30° C.",1.42 % w/w
same,Benzoyl Peroxide (BPO) (as % w/w),"[6]; 90 days, 40° C.",1.28 % w/w
same,Benzoyl peroxide (as % w/w),"[7]; 6 months, 6° C.",5.2 % w/w
same,Benzoyl peroxide (as % w/w),"[7]; 6 months, 25° C.",5.14 % w/w
same,Benzoyl peroxide (as % w/w),"[7]; 6 months, 30° C.",5.02 % w/w
same,Benzoyl peroxide (as % w/w),"[7]; 6 months, 40° C.",4.81 % w/w
same,Benzoyl peroxide (as % w/w),"[7]; 90 days, 6° C.",5.25 % w/w
same,Benzoyl peroxide (as % w/w),"[7]; 90 days, 25° C.",5.23 % w/w
same,Benzoyl peroxide (as % w/w),"[7]; 90 days, 30° C.",5.30 % w/w
same,Benzoyl peroxide (as % w/w),"[7]; 90 days, 40° C.",5.16 % w/w
same,Benzoyl Peroxide (BPO) (as % w/w),"[8]; 6 months, 6° C.",2.10 % w/w
same,Benzoyl Peroxide (BPO) (as % w/w),"[8]; 6 months, 25° C.",2.00 % w/w
same,Benzoyl Peroxide (BPO) (as % w/w),"[8]; 6 months, 30° C.",1.94 % w/w
same,Benzoyl Peroxide (BPO) (as % w/w),"[8]; 6 months, 40° C.",1.45 % w/w
same,Benzoyl Peroxide (BPO) (as % w/w),"[8]; 90 days, 6° C.",2.02 % w/w
same,Benzoyl Peroxide (BPO) (as % w/w),"[8]; 90 days, 25° C.",1.97 % w/w
same,Benzoyl Peroxide (BPO) (as % w/w),"[8]; 90 days, 30° C.",1.97 % w/w
same,Benzoyl Peroxide (BPO) (as % w/w),"[8]; 90 days, 40° C.",1.73 % w/w
same,Benzoyl Peroxide (BPO) (as % w/w),"[9]; 2 weeks, 25° C.",5.43 % w/w
same,Benzoyl Peroxide (BPO) (as % w/w),"[9]; 2 weeks, 30° C.",5.35 % w/w
same,Benzoyl Peroxide (BPO) (as % w/w),"[9]; 2 weeks, 40° C.",5.34 % w/w
same,Benzoyl Peroxide (BPO) (as % w/w),"[9]; 90 days, 6° C.",5.48 % w/w
same,Benzoyl Peroxide (BPO) (as % w/w),"[9]; 90 days, 25° C.",5.34 % w/w
same,Benzoyl Peroxide (BPO) (as % w/w),"[9]; 90 days, 30° C.",5.33 % w/w
same,Benzoyl Peroxide (BPO) (as % w/w),"[9]; 90 days, 40° C.",5.19 % w/w
same,Benzoyl Peroxide (BPO) (as % w/w),"[10]; 2 weeks, 6° C.",0.99 % w/w
same,Benzoyl Peroxide (BPO) (as % w/w),"[10]; 2 weeks, 25° C.",0.98 % w/w
same,Benzoyl Peroxide (BPO) (as % w/w),"[10]; 2 weeks, 30° C.",0.98 % w/w
same,Benzoyl Peroxide (BPO) (as % w/w),"[10]; 2 weeks, 40° C.",0.96 % w/w
same,Benzoyl Peroxide (BPO) (as % w/w),"[10]; 6 months, 6° C.",1.02 % w/w
same,Benzoyl Peroxide (BPO) (as % w/w),"[10]; 6 months, 25° C.",0.96 % w/w
same,Benzoyl Peroxide (BPO) (as % w/w),"[10]; 6 months, 30° C.",0.91 % w/w
same,Benzoyl Peroxide (BPO) (as % w/w),"[10]; 6 months, 40° C.",0.40 % w/w
same,Benzoyl Peroxide (BPO) (as % w/w),"[10]; 90 days, 6° C.",1.02 % w/w
same,Benzoyl Peroxide (BPO) (as % w/w),"[10]; 90 days, 25° C.",0.99 % w/w
same,Benzoyl Peroxide (BPO) (as % w/w),"[10]; 90 days, 30° C.",0.95 % w/w
same,Benzoyl Peroxide (BPO) (as % w/w),"[10]; 90 days, 40° C.",0.73 % w/w
